Experimental data from article PMC10525516, “Novel NADPH Oxidase-2 Inhibitors as Potential Anti-Inflammatory and Neuroprotective Agents” (Antioxidants, 2023).

Biological target: T1, Nox2 (Homo sapiens, UniProt P04839)
T1 construct: endogenous in cells
T1 sequence (P04839 2-570 limits assumed): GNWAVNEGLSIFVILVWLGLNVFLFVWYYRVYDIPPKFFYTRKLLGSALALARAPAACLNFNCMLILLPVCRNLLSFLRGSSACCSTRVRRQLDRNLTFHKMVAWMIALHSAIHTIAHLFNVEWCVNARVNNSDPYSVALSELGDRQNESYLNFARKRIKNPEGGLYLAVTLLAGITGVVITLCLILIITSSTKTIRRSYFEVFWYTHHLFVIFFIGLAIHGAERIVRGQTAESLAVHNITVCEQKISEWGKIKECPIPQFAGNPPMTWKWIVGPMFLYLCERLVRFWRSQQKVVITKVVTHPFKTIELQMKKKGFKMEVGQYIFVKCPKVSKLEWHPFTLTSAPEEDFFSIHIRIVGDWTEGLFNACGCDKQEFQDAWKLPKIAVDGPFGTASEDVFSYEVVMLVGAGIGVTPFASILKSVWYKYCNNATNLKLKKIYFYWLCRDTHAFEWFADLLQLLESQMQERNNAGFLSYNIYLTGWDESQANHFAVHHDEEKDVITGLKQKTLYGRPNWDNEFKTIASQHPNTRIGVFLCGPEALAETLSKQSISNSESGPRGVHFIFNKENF
T1 sequence (P13498 2-195 partner limits assumed): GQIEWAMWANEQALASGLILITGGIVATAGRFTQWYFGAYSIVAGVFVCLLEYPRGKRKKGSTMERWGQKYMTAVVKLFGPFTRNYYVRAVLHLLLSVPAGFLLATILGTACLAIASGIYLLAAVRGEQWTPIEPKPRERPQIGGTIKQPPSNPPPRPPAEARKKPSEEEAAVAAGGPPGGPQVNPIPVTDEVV
Test: Seahorse XFe96 oxygen consumption in dHL60 cells before and after PMA
Assay type: cell-based
Procedure: Oxygen consumption in dHL60 cells was monitored before and after the sequential addition of the candidate Nox inhibitors and PMA using a Seahorse XFe96 extracellular flux analyzer (Agilent Technologies, Santa Clara, CA, USA). The cell suspension was prepared in phenol red-free RPMI medium (without bicarbonate) and aliquoted (80 µL/well) into a 96-well plate to obtain a final cell number of 2 × 10^4 cells/well. Cells were spun down and an additional amount of RPMI medium (100 µL/well) was added gently so as not to disturb the cells at the bottom of the wells. The solutions for injections were prepared 10× concentrated, loaded into the injection ports of the Seahorse XFe96 cartridge, and the volumes injected were 20 µL and 22.2 µL for the compounds tested and PMA, respectively. The oxygen consumption rates were monitored for 30 min before injection (baseline respiration rate), 60 min after injection of different concentrations of the candidate Nox inhibitors, and 2 h after injection of PMA (final concentration: 1 µM). Increases in OCR values after PMA injection were used as a measure of Nox2 activity.

CN(C)CCCn1c(SCCc2c[nH]c3ccccc23)nc2ccc(F)cc2c1=O [TG15-132]
basal respiration (OCR) (1 h after compound injection, before PMA, concentrations that inhibit PMA-induced OCR): no inhibition of basal respiration | PMA-induced OCR (PMA 1 µM after 1 h compound): significant inhibition of PMA-induced OCR
